{
  "source": "patent US10345295B2",
  "about": "“Device and method for point-of-care diagnostics and antibiotic resistance identification, and applications thereof” (CORNELL UNIVERSITY, priority 2015, dated 2019)",
  "test_system": "attenuated E. coli K12 strain with a kanamycin resistance gene",
  "test": "colorimetric phenotypic antibiotic susceptibility test (phenol red) in capillary tubes",
  "format": "cell-based",
  "conditions": "bacteria culture incubated in capillary tubes with added antibiotic; LB media, 0.05% phenol red; read at the 4-hour mark",
  "protocol": "According to an embodiment, a colorimetric phenotypic testing approach was utilized to assess the antibiotic susceptibility of an attenuated E. coli K12 strain. The pH indicator phenol red was used to provide a phenotypic indication of bacterial growth. For colorimetric phenotypic testing approach, bacterial growth tests were conducted with small sample volumes in a PDMS microchip. The E. coli strain with a kanamycin resistance gene as a selection marker was first streaked and incubated overnight on LB agar plates containing kanamycin. Single colonies were subsequently picked and propagated in liquid bulk culture. Following overnight bulk culture to stationary phase, small volumes (˜1 μL) of culture were separately incubated on the PDMS chip in wells each containing a 19 μL mixture of fresh LB media, 0.05% phenol red, and the antibiotics kanamycin (control) and ampicillin (test). The metabolic activity of viable bacteria leads to an accumulation of organic acids in the growth media, which causes the phenol red to change in color from red to yellow, which is expected for the control group as the E. coli stain is kanamycin resistant.\nA similar experiment was conducted by incubating the bacteria culture in capillary tubes designed to hold microliters of liquid. […]",
  "data": [
    {"smiles": "CC1(C)S[C@@H]2[C@H](NC(=O)[C@H](N)c3ccccc3)C(=O)N2[C@H]1C(=O)O", "note": "[ampicillin]", "values": [
      {"measurement": "color change of phenol red pH indicator (phenotypic indication of bacterial growth)", "result": "No color change"}
    ]}
  ]
}
